Literature values in patent US20230028307A1, “TREATMENT OF NEUROLOGICAL DISORDERS WITH AVERMECTINS” (Equilibre BioPharmaceuticals BV, priority 2020, published 2023).

Legend:
[1] = humans, relatively large doses
[2] = tested on: episodes of epileptic attack; settings: patients suffering from onchoceriasis treated with ivermectin

Substance: ivermectin
- side effects [1]: no significant side effects
- episodes of epileptic attack [2]: reduced
